{"source": "paper PMC4139942", "about": "(Scientific Reports, 2014)", "key": {"AD brain samples": {"target": "AD brain samples", "conditions": "cited from earlier work"}, "amylin aggregates": {"target": "amylin aggregates (Homo sapiens, UniProt P10997)", "sequence (P10997 34-70)": "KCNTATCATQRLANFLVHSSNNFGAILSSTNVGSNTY", "format": "binding"}}, "data": [{"compound": "CNc1ccc(/C=C/c2ccc(OCCOCCOCCF)nc2)cc1", "note": "[AV-45, (E)-4-(2-(6-(2-(2-(2-fluoroethoxy)ethoxy)ethoxy)pyridin-3-yl)vinyl)-N-methylaniline]", "values": [{"measurement": "Ki", "setting": "AD brain samples", "result": 6.7, "unit": "nM"}, {"measurement": "Ki", "setting": "amylin aggregates", "result": "501 ± 40.8", "unit": "nM"}]}]}
